Data as given in US9029567B2, “Hypoglycemic compounds” (Cadila Pharmaceuticals Limited, priority 2010, dated 2015).

Test system: Wistar female rats
Test: Oral Glucose Tolerance Test in animals (in vivo screening of hypoglycemic effect)
Settings: three experiments; for % change in glucose level (Mean ± SEM) 30 Min: 30 min after glucose (2 gm/Kg, given 3 hrs after compound), oral equimolar dose (Sitagliptin 9.0, CPL-2009-0030 11.28, CPL-2009-0031 12.0 mg/kg), no treatment 199 ± 5; for % change in glucose level (Mean ± SEM) 1 Hr: 1 hr after glucose (2 gm/Kg, given 3 hrs after compound), no treatment 154 ± 4; for % change in glucose level (Mean ± SEM) 1 Hr / % change in glucose level (Mean ± SEM) 2 hr: oral equimolar dose; for % change in glucose level (Mean ± SEM) 2 hr: 2 hr after glucose (2 gm/Kg, given 3 hrs after compound), no treatment 122 ± 5
Procedure: The efficacy compound CPL-2009-0030 and CPL-2009-0031 were prepared as per present invention. They were evaluated through Oral Glucose Tolerance Test in animals. Each group consist of 10-12 weeks old Wistar female rats. The animals were divided into 4 different groups of 6 animals per group. The group I received vehical (WFI Placebo), Group II received Sitagliptin as positive control, Group III received CPL-2009-0030 and Group IV received CPL-2009-0031. All animals had over night fasting.
The drug was administrated as per table 01 at 0 hour to all the study group animals with 10 mL/kg of dose volume. The compounds were administered orally. The glucose (2 gm/Kg body weight) was administered 3 hrs after the administration of compounds. Blood glucose was measured at the time of administration of compound, glucose and 30 min, 1 hr, 2 hr, 3 hr and 4 hr after the glucose administration. […] The rise was maximum at 30 min after glucose administration. […] The difference between no treatment group and other three groups is maximum at 30 min and it decreases over time (FIG. 1). […] Thus, the compound of present invention reduces hyperglycaemic effect of glucose without inducing hypoglycaemia. In other words, compounds of present invention provide hypoglycaemic effect only to reduce post-prandial hyperglycaemia without inducing fasting hypoglycaemia.
To confirm the finding the experiment was repeated three times and the percentage change in glucose level over time of three experiments is presented in table 02. The repeat experiments also confirm the findings.

SMILES | % change in glucose level (Mean ± SEM) 30 Min [%] | % change in glucose level (Mean ± SEM) 1 Hr [%] | % change in glucose level (Mean ± SEM) 2 hr [%]
NC(Cc1ccccc1)C(=O)NC(CC(=O)N1CCn2c(nnc2C(F)(F)F)C1)Cc1cc(F)c(F)cc1F (stereo not drawn) [CPL-2009-0031] | 125 ± 3 | 123 ± 4 | 110 ± 3
N[C@@H](CC(=O)N1CCn2c(nnc2C(F)(F)F)C1)Cc1cc(F)c(F)cc1F [Sitagliptin, reference compound] | 149 ± 5 | 130 ± 4 | 109 ± 2
CCC(C)C(N)C(=O)NC(CC(=O)N1CCn2c(nnc2C(F)(F)F)C1)Cc1cc(F)c(F)cc1F (stereo not drawn) [CPL-2009-0030] | 145 ± 13 | 127 ± 6 | 108 ± 5
